Results as given in US20190030018A1 (Celgene Corporation, priority 2017, published 2019).
Converted amounts (≈) assume the structure as drawn. Read-outs that look alike come from different tables or passages of the source.

Columns and labels:
physchem [1] = format: physicochemical; conditions: organic solvent or mixture, thermodynamic from solid, drug solubility in formic acid
Method: A solvent screen was conducted to identify suitable Class 3 solvents listed in the ICH (International Conference on Harmonisation) Q3C Guidance as the Class 3 solvents have a higher permitted daily exposure (PDE) level of 50 mg/day. A good solvent candidate was considered to have 1) good miscibility with water and 2) sufficiently low boiling point so that it can be easily removed during the lyophilization process.

[2] = Solubility of Compound 1 in Kleptose solutions ('top-down' approach); format: physicochemical; conditions: formic acid 1.65 mg/mL
Method: The Kleptose concentration varied from 30 to 100 mg/mL.

BON cells = assay: Signaling and proliferation of BON cells, CellTiter-Glo assay (2D and 3D plates); format: cell-based; conditions: BON1, single agent
[3] = tested on: peripheral blood mononuclear cells (PBMCs) from myelofibrosis patients; assay: Colony forming assay using myelofibrosis patient samples; format: cell-based, human
Excerpt: The following samples were used:
MF13: De novo MF, characterized by JAK2 wt, FLT3 wt, NPM1 wt, CEBPA wt
MF14: De novo MF, characterized by JAK2 wt, CALR exon9 mut, ASXL1 wt, MPLwt

[4] = tested on: GSPT1 expression, mTOR activation, Mcl-1 expression and Caspase-3 cleavage in AML cells; assay: Immunoblot analysis of AML cells treated with Compound 1 and everolimus; format: cell-based; conditions: AML cell lines HNT-34 and KG1, Compound 1 alone
Excerpt: Whole cell extracts were collected and subjected to immunoblot analysis.

BMMCs from MDS patients = assay: Ex vivo liquid culture of BMMCs from MDS patients, Compound 1 with everolimus (viable cell count); format: cell-based, human
Method: Cultures were maintained for 1 week and cell numbers were measured by viable cell count on days 1, 3 and 7 of culture.

[5] = tested on: caspase-3 activation and GSPT1 degradation in BMMCs from a MDS patient; assay: Apoptosis and GSPT1 degradation by flow cytometry 24 hours after exposure; format: cell-based, human; conditions: 24 hours exposure
physchem [6] = conditions: aqueous with cosolvent or surfactant or cyclodextrin
Method: In the first precipitation study, four solution formulations were prepared at a Kleptose concentration of 100 mg/mL. […] Then the solutions were stored in three conditions: (1) at ambient condition with mild mixing; (2) at ambient condition without mixing; (3) at 2-8° C. without mixing.
The corresponding drug concentration of each formulation was 300, 400, and 500 μg/mL so that the supersaturation ratio was about 5× for all the three formulations. […] In the study, the same experiments were repeated twice to evaluate the reproducibility of the results.

[7] = GA0087 PDX model ex vivo 3D methylcellulose CellTiter-Glo cell viability assay (IC50, matrix combination, Combination Index)
Method: (§1) Materials and Methods: The stomach cancer cell line GA0087 was used in this study. […] Culture media was purchased from GIBCO or Sigma, USA.
(§2) Everolimus was obtained from Selleck. Cisplatin was used as a reference drug, and was obtained from Hospira Australia pty Ltd.
(§3) PDX tumor models were maintained at Crownbio HuPrime animal facility. Tumor growth was monitored weekly. Tumor volumes were measured in two dimensions using a caliper, and the volume was expressed in mm^3 using the formula: V=0.5 a×b^2 where a and b are the long and short diameters of the tumor, respectively. • 2. Mouse xenografts at tumor volume around 800 mm^3 were housed with sterile surgical tools and tumor tissue was minced into tiny pieces with scissors in small amount of PBS on a new tissue culture plate. • 3. The cell suspension was filtered through Falcon cell strainer. The nylon mesh was washed 3-5 times with PBS. • 4. The cell suspension was centrifuged at 1000 rpm for 5 minutes and the pellet was washed with PBS and centrifuged again. • 5. Red blood cells were removed using red blood cell lysis buffer. • 6. The cell suspension was centrifuged at 1000 rpm for 5 minutes and the pellet was washed with PBS and centrifuged again. • 7. The cell pallet was re-suspended with appropriate cell culture media for different cells. • 8. Cells were counted with Countstar by trypan blue exclusion.
(§4) Day −1: Cell Plating • 1. The cells were harvested during the logarithmic growth period. The harvested cells were cultured with appropriate cell media and centrifuged at 1000 rpm for 3 minutes. […] (Cell concentration was adjusted according to the data base or density optimization assay). • 3. 3.5 mL of cell suspension was mixed with 6.5 mL of 1% methylcellulose. […] 90 μL cell suspensions were added to 96-well plates according to plate map with final cell density. Two duplicate plates were set up: one for day 0 reading (T0) and the other was cultured in incubator for reading at the end point.
(§5) Day 0: T0 Plate Reading and Compound Treatment • 5.10 μL culture medium was added to T0 plate in each well for T0 reading. • 6.100 μl CellTiter-Glo® Reagent was added to each well. • 7. The contents were mixed for 2 minutes on an orbital shaker to facilitate cell lysis. • 8. The plates were allowed to incubate at room temperature for 10 minutes to stabilize luminescent signal. • 9. A backseal black sticker was placed to the bottom of each plate. • 10. The luminescence was read using EnVision Multi Label Reader. • 11.
(§6) The solutions were stored at −20° C. […] The response score was calculated by normalizing to DMSO control. The combination index (CI) was calculated using Chou and Talalay method, wherein a CI of less than 1 indicates synergy. Cisplatin was used as control in the single compound dose response, but was not included in the combination test.
(§7) After drug incubation, pictures for representative wells were taken using a phase contrast microscope. • 13. 100 μL CellTiter-Glo® Reagent was added to each well. • 14. Contents were mixed for 2 minutes on an orbital shaker to facilitate cell lysis. • 15. The plates were allowed to incubate at room temperature for 10 minutes to stabilize luminescent signal. • 16. Backseal black sticker was placed to the bottom of each plate. • 17. Luminescence was recorded using EnVision Multi Label Reader.
(§8) In order to calculate IC50, a dose-response curve was fitted using nonlinear regression model with a sigmoidal dose response. The formula of surviving rate is shown below, and the IC50 was automatically produced by GraphPad Prism 5.0.
(§9) The surviving rate (%)=(LumTest article−LumMedium control)/(LumNone treated−LumMedium control)×100%.

[8] = tested on: stomach cancer cell line GA0087; assay: as above
Method: as §1, §2, §3, §4, §5, §6, §7, §8, §9

SMILES: O=C1CCC(N2Cc3cc(CNC(=O)C(F)(F)c4ccc(Cl)cc4)ccc3C2=O)C(=O)N1 (centres unmarked) [Compound 1, 2-(4-chlorophenyl)-N-((2-(2,6-dioxopiperidin-3-yl)-1-oxoisoindolin-5-yl)methyl)-2,2-difluoroacetamide]
- solubility (physchem [1]): ~170000 µg/mL (≈ 368000 µM)
- Assay at t = 0 ([2]; Kleptose 30 mg/mL): 0.114 mg/mL
- Assay at t = 4 wks without Compound 1 crystal at 25° C. ([2]; Kleptose 30 mg/mL): 0.036 mg/mL
- Assay at t = 9 days with Compound 1 crystal at 25° C. ([2]; Kleptose 30 mg/mL): 0.036 mg/mL
- Assay at t = 0 ([2]; Kleptose 60 mg/mL): 0.115 mg/mL
- Assay at t = 4 wks without Compound 1 crystal at 25° C. ([2]; Kleptose 60 mg/mL): 0.114 mg/mL
- Assay at t = 9 days with Compound 1 crystal at 25° C. ([2]; Kleptose 60 mg/mL): 0.065 mg/mL
- Assay at t = 0 ([2]; Kleptose 70 mg/mL): 0.115 mg/mL
- Assay at t = 4 wks without Compound 1 crystal at 25° C. ([2]; Kleptose 70 mg/mL): 0.114 mg/mL
- Assay at t = 9 days with Compound 1 crystal at 25° C. ([2]; Kleptose 70 mg/mL): 0.077 mg/mL
- Assay at t = 0 ([2]; Kleptose 80 mg/mL): 0.116 mg/mL
- Assay at t = 4 wks without Compound 1 crystal at 25° C. ([2]; Kleptose 80 mg/mL): 0.114 mg/mL
- Assay at t = 9 days with Compound 1 crystal at 25° C. ([2]; Kleptose 80 mg/mL): 0.103 mg/mL
- Assay at t = 0 ([2]; Kleptose 90 mg/mL): 0.116 mg/mL
- Assay at t = 4 wks without Compound 1 crystal at 25° C. ([2]; Kleptose 90 mg/mL): 0.115 mg/mL
- Assay at t = 9 days with Compound 1 crystal at 25° C. ([2]; Kleptose 90 mg/mL): 0.114 mg/mL
- Assay at t = 0 ([2]; Kleptose 100 mg/mL): 0.117 mg/mL
- Assay at t = 4 wks without Compound 1 crystal at 25° C. ([2]; Kleptose 100 mg/mL): 0.115 mg/mL
- Assay at t = 9 days with Compound 1 crystal at 25° C. ([2]; Kleptose 100 mg/mL): 0.117 mg/mL
- standalone activity on proliferation (BON cells): no standalone activity
- number of colony forming cells ([3]; 14 days in methocult media, samples MF13, MF14): reduced by Compound 1 in a dose dependent manner
- IC50 in colony forming assay ([3]; compared with samples from healthy volunteers): lower than IC50s observed in samples from healthy volunteers
- GSPT1 degradation, Caspase-3 cleavage and Mcl-1 loss [4]: sufficient to induce robust GSPT1 degradation, Caspase-3 cleavage, and Mcl-1 loss
- effect of single agent (BMMCs from MDS patients; 37 nM): No effect
- reduction of cell numbers (BMMCs from MDS patients; 37 nM, after 3 days of culture): ~70%
- cell number decrease (BMMCs from MDS patients; higher concentrations): up to 95%
- Caspase 3 activation [5]: activated
- GSPT1 degradation [5]: degraded
- solubility at 2 days (physchem [6]): 135 µg/mL (≈ 292 µM)
- solubility at 9 days (physchem [6]): 115 µg/mL (≈ 249 µM)
- solubility at 34 days (physchem [6]): 98 µg/mL (≈ 212 µM)
- IC50 ([7]; read-out: Absolute IC50, GA0087-1st experiment): 20.3 nM
- IC50 ([7]; read-out: Absolute IC50, GA0087-2nd experiment): 16.4 nM
- IC50 ([7]; read-out: Relative IC50, GA0087-1st experiment): 16.3 nM
- IC50 ([7]; read-out: Relative IC50, GA0087-2nd experiment): 15.2 nM
- Maximal Inhibition ([8]; GA0087-1st experiment): 90.71%
- Maximal Inhibition ([8]; GA0087-2nd experiment): 92.41%
- activity in the GA0087 model ([8]; ex vivo 3D assay, 7 days, single agent): shows activity
